These results are taken from ChEMBL document CHEMBL1143193, “A new family of H3 receptor antagonists based on the natural product Conessine” (Bioorg Med Chem Lett, 2008).

One may read the Ki as a measure of affinity in units of concentration, obtained from inhibition or displacement. One may read the bioavailability as the share of a dose that reaches the circulation, judged against a reference dose that is usually intravenous. Read a high bioavailability as much systemic uptake. One may read the half-life as how long it takes for the measured level to halve. Low values mean rapid decline, high ones slow decline.

In one data set the target is Histamine H3 receptor (Rattus norvegicus, UniProt Q9QYN8). In words: Displacement of N-[3H]methylhistamine from histamine H3 receptor in rat cortex.
Data set [1] deals with Histamine H3 receptor (Rattus norvegicus) (UniProt Q9QYN8). In words: Displacement of N-[3H]methylhistamine from histamine H3 receptor in rat cortex at < 5 uM.
Data set [2] is described as follows: Oral bioavailability in rat. In kind it is ADME, organism-based. The following applies: in vivo.
The species named for another data set is Rattus norvegicus. In words: Inhibition of R-alpha-methylhistamine-induced drinking response in rat dipsogenia model. Format: functional.
For data set [3], the species on record is Homo sapiens. In words: Selectivity for human histamine H3 receptor over human histamine H2 receptor.
For data set [4], the species on record is Homo sapiens. In words: Selectivity for human histamine H3 receptor over human histamine H4 receptor.
Data set [5] can be described thus: Half life in rat. Format: ADME, organism-based. The following applies: in vivo.
The species named for data set [6] is Homo sapiens. In words: Selectivity for human histamine H3 receptor over human histamine H1 receptor.

SMILES strings stand for the structures. Active and inactive are the calls of the source. No cut-off for these calls is given here.

Histamine H3 receptor, sequence (Q9QYN8 whole entry): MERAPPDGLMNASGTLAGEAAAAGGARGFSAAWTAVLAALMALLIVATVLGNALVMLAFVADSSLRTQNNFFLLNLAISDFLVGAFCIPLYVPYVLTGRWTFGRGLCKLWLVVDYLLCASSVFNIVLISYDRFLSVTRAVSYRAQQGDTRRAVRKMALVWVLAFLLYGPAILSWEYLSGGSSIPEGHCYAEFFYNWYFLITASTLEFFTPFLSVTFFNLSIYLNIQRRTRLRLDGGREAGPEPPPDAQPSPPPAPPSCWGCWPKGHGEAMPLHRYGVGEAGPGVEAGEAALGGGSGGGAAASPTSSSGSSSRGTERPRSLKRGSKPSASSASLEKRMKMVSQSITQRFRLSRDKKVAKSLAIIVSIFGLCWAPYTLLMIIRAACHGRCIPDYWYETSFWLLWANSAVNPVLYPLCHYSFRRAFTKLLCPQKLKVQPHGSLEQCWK
Histamine H3 receptor (Rattus norvegicus), sequence (Q9QYN8 whole entry): as above

Turning to `C1=C(c2ccc(CCN3CCCCC3)cc2)C2CN(Cc3ccccc3)CC2C1` (stereo not drawn), the Ki at Histamine H3 receptor (read-out: Ki) came out at 400 pM.
On the same count and under the same terms, then `C1=C(c2ccc(CCN3CCCC3)cc2)C2CN(c3ccccn3)CC2C1` (stereo not drawn), with 2000 pM.
As for `C1=C(c2ccc(CCN3CCc4ccccc43)cc2)C2CN(Cc3ccccc3)CC2C1` (stereo not drawn), the result in data set [1] was inactive.
On to `CN(C)CCc1ccc(C2=CCC3CN(Cc4ccccc4)CC23)cc1` (stereo not drawn), for which the Ki on Histamine H3 receptor (read-out: Ki) is 2300 pM.
Still for that read-out and setting: under `C1=C(c2ccc(CCN3CCCC3)cc2)[C@@H]2CN(C3CCCC3)C[C@@H]2C1` stands 80 pM; under `OC[C@H]1CCCN1CCc1ccc(C2=CCC3CN(Cc4ccccc4)CC23)cc1` (stereo partly drawn), 510 pM.
On the same count and under the same terms, then `FC1(F)CCN(CCc2ccc(C3=CCC4CN(Cc5ccccc5)CC34)cc2)C1` (stereo not drawn), with 2800 pM.
On to `C1=C(c2ccc(CCN3CCCC3)cc2)C2CN(Cc3ccccc3)CC2C1` (stereo not drawn), for which the Ki on Histamine H3 receptor (read-out: Ki) is 300 pM.
Turning to `CC(C)N1C[C@@H]2CC=C(c3ccc(CCN4CCCC4)cc3)[C@@H]2C1`, at Histamine H3 receptor (read-out: Ki), the Ki amounted to 290 pM.
The same measure, in the same setting: under `CC1CCCN1CCc1ccc(C2=CCC3CN(Cc4ccccc4)CC23)cc1` (stereo not drawn) stands 50 pM.
Still for that read-out and setting: then `C1=C(c2ccc(CCN3CCCC3)cc2)[C@H]2CN(Cc3ccccc3)C[C@H]2C1`, with 750 pM; and `C1=C(c2ccc(CCN3CCC3)cc2)C2CN(Cc3ccccc3)CC2C1` (stereo not drawn), with 2400 pM.
Still for that read-out and setting: under `C1=C(c2ccc(CCN3CCCC3)cc2)C2CN(c3ccccc3)CC2C1` (stereo not drawn) stands 67000 pM.
Consider `C1=C(c2ccc(CCN3Cc4ccccc4C3)cc2)C2CN(Cc3ccccc3)CC2C1` (stereo not drawn), for which the Ki on Histamine H3 receptor (read-out: Ki) amounted to 256000 pM.
On the same count and under the same terms, under `C1=C(c2ccc(CCN3CCCC3)cc2)C2CN(C3CCCC3)CC2C1` (racemic) stands 400 pM.
The molecule `C1=C(c2ccc(CCN3CCCC3)cc2)[C@@H]2CN(CC3CC3)C[C@@H]2C1` yielded a bioavailability in data set [2] of 78%. The Activity result in the data set filed under Rattus norvegicus was “Dose-dependent effect”. Also, the minimal effective dose in the data set listed under Rattus norvegicus (read-out: MED) amounted to 3 mg/kg. Moreover, the Ki on Histamine H3 receptor (read-out: Ki) amounted to 70 pM. For the same molecule, the Selectivity ratio in the data set filed under Homo sapiens [3], in the data set filed under Homo sapiens [4] and in the data set listed under Homo sapiens [6] was more than 1000 in each case. The same molecule gave a half-life in data set [5] of 6 h.
As for `C[C@H]1[C@H]2CC[C@H]3[C@@H]4CC=C5C[C@@H](N(C)C)CC[C@]5(C)[C@H]4CC[C@]23CN1C` [CONESSINE], the Ki at Histamine H3 receptor (read-out: Ki) amounted to 66000 pM.
With `C1=C(c2ccc(CCN3CCCC3)cc2)[C@@H]2CN(Cc3ccccc3)C[C@@H]2C1`, at Histamine H3 receptor (read-out: Ki), the inhibitory constant (Ki) came out at 50 pM. In addition, the Selectivity ratio in the data set filed under Homo sapiens [3], in the data set filed under Homo sapiens [4] and in the data set listed under Homo sapiens [6] was more than 1000 throughout.
Take `CC(C)N1CC2CC=C(c3ccc(CCN4CCCC4)cc3)C2C1` (racemic): the Ki at Histamine H3 receptor (read-out: Ki) was 900 pM.
On to `O=C1CCCN1CCc1ccc(C2=CCC3CN(Cc4ccccc4)CC23)cc1` (stereo not drawn), for which the Ki was 310000 pM at Histamine H3 receptor (read-out: Ki) and 132000 pM at Histamine H3 receptor (read-out: Log Ki (converted)).
As for `C1=C(c2ccc(CCN3CCCC3)cc2)C2CN(c3cncnc3)CC2C1` (stereo not drawn), on Histamine H3 receptor (read-out: Ki), the Ki was 7000 pM.
With `C1=C(c2ccc(CCN3CCOCC3)cc2)C2CN(Cc3ccccc3)CC2C1` (stereo not drawn), on Histamine H3 receptor (read-out: Ki), the Ki worked out at 1700 pM.
With `C1=C(c2ccc(CCN3CCCC3)cc2)C2CN(CC3CC3)CC2C1` (racemic), the inhibitory constant (Ki) is 100 pM on Histamine H3 receptor (read-out: Ki) and 112 pM on Histamine H3 receptor (read-out: Log Ki (converted)).
For `C1=C(c2ccc(CCN3CCCC3)cc2)C2CN(c3ncccn3)CC2C1` (stereo not drawn), the Ki on Histamine H3 receptor (read-out: Ki) is 36000 pM.
Same read-out and setting: under `OC[C@@H]1CCCN1CCc1ccc(C2=CCC3CN(Cc4ccccc4)CC23)cc1` (stereo partly drawn) stands 160 pM; under `CN1CCN(CCc2ccc(C3=CCC4CN(Cc5ccccc5)CC34)cc2)CC1` (stereo not drawn), 58000 pM.
